In ChEMBL document CHEMBL3774360, “Potent multitarget FAAH-COX inhibitors: Design and structure-activity relationship studies” (Eur J Med Chem, 2016):

Key:
Homo sapiens [1] = species on record: Homo sapiens; assay: Binding affinity to 5-HT1 receptor (unknown origin) at 10 uM
Homo sapiens [2] = species on record: Homo sapiens; assay: Binding affinity to human sigma receptor at 10 uM by radioligand binding assay
[3] = target: Glucocorticoid receptor (Homo sapiens) (UniProt P04150); assay: Binding affinity to human glucocorticoid receptor at 10 uM by radioligand binding assay
[4] = target: Estrogen receptor (Homo sapiens) (UniProt P03372); assay: Binding affinity to human estrogen receptor at 10 uM by radioligand binding assay
[5] = target: Progesterone receptor (Homo sapiens) (UniProt P06401); assay: Binding affinity to human progesterone receptor at 10 uM by radioligand binding assay
[6] = target: Androgen receptor (Homo sapiens) (UniProt P10275); assay: Binding affinity to human androgen receptor at 10 uM by radioligand binding assay
Homo sapiens [7] = species on record: Homo sapiens; assay: Binding affinity to L-type calcium channel diltiazem binding site (unknown origin) at 10 uM by radioligand binding assay
Homo sapiens [8] = species on record: Homo sapiens; assay: Binding affinity to L-type calcium channel verapamil binding site (unknown origin) at 10 uM by radioligand binding assay
Homo sapiens [9] = species on record: Homo sapiens; assay: Binding affinity to ATP-sensitive potassium channel (unknown origin) at 10 uM by radioligand binding assay
[10] = target: Sodium-dependent noradrenaline transporter (Homo sapiens) (UniProt P23975); assay: Binding affinity to human norepinephrine transporter at 10 uM by radioligand binding assay
Homo sapiens [11] = species on record: Homo sapiens; assay: Binding affinity to GABA transporter (unknown origin) at 10 uM by radioligand binding assay
[12] = target: Sodium-dependent serotonin transporter (Homo sapiens) (UniProt P31645); assay: Binding affinity to human 5-HT transporter at 10 uM by radioligand binding assay
[13] = target: Transient receptor potential cation channel subfamily V member 1 (Homo sapiens) (UniProt Q8NER1); assay: Agonist activity against human TRPV1 receptor at 10 uM
[14] = target: Polyunsaturated fatty acid 5-lipoxygenase (Homo sapiens) (UniProt P09917); assay: Binding affinity to human 5-lipoxygenase at 10 uM
[15] = target: Polyunsaturated fatty acid lipoxygenase ALOX15B (Homo sapiens) (UniProt O15296); assay: Binding affinity to recombinant human 15-Lipoxygenase-2 at 10 uM
[16] = target: Nitric oxide synthase, inducible (Homo sapiens) (UniProt P35228); assay: Binding affinity to inducible NOS (unknown origin) at 10 uM
[17] = target: M-phase inducer phosphatase 1 (Homo sapiens) (UniProt P30304); assay: Binding affinity to CDC25A (unknown origin) at 10 uM
[18] = target: Acetylcholinesterase (Homo sapiens) (UniProt P22303); assay: Binding affinity to human acetylcholinesterase at 10 uM
[19] = target: Amine oxidase [flavin-containing] A (Homo sapiens, UniProt P21397); assay: Binding affinity to human MAO-A at 10 uM
[20] = target: Amine oxidase [flavin-containing] B (Homo sapiens, UniProt P27338); assay: Binding affinity to recombinant human MAO-B at 10 uM
[21] = target: Kinesin-like protein KIF11 (Homo sapiens) (UniProt P52732); assay: Binding affinity to human Eg5 at 10 uM
[22] = target: Histone deacetylase 4 (Homo sapiens) (UniProt P56524); assay: Binding affinity to human HDAC4 at 10 uM
[23] = target: Histone deacetylase 11 (Homo sapiens) (UniProt Q96DB2); assay: Binding affinity to human HDAC11 at 10 uM
[24] = target: NAD-dependent protein deacetylase sirtuin-1 (Homo sapiens) (UniProt Q96EB6); assay: Inhibition of human sirtuin 1 at 10 uM; set-up: scale not given: the % may be the effect or the level left
Homo sapiens [25] = species on record: Homo sapiens; assay: Activation of human guanylyl cyclase at 10 uM
[26] = target: Transmembrane domain-containing protein TMIGD3 (Homo sapiens) (UniProt P0DMS9); assay: Binding affinity to human adenosine A3 receptor at 10 uM by radioligand binding assay
[27] = target: Beta-1 adrenergic receptor (Homo sapiens) (UniProt P08588); assay: Binding affinity to beta-1 adrenergic receptor (unknown origin) at 10 uM by radioligand binding assay
Homo sapiens [28] = species on record: Homo sapiens; assay: Binding affinity to central-type benzodiazepine receptor (unknown origin) at 10 uM by radioligand binding assay
[29] = target: B2 bradykinin receptor (Homo sapiens) (UniProt P30411); assay: Binding affinity to human bradykinin 2 receptor at 10 uM by radioligand binding assay
[30] = target: Calcitonin gene-related peptide 1 (Homo sapiens) (UniProt P06881); assay: Binding affinity to CGRP1 (unknown origin) at 10 uM
[31] = target: Cannabinoid receptor 2 (Homo sapiens) (UniProt P34972); assay: Binding affinity to human cannabinoid receptor 2 at 10 uM by radioligand binding assay
[32] = target: Gastrin/cholecystokinin type B receptor (Homo sapiens) (UniProt P32239); assay: Binding affinity to human cholecystokinin receptor type B at 10 uM by radioligand binding assay
[33] = target: Corticotropin-releasing factor receptor 1 (Homo sapiens) (UniProt P34998); assay: Binding affinity to human CRF1 receptor at 10 uM by radioligand binding assay
[34] = target: D(2) dopamine receptor (Homo sapiens) (UniProt P14416); assay: Binding affinity to human dopamine D2S receptor at 10 uM by radioligand binding assay
[35] = target: D(4) dopamine receptor (Homo sapiens) (UniProt P21917); assay: Binding affinity to human dopamine D4.4 receptor at 10 uM by radioligand binding assay
Homo sapiens [36] = species on record: Homo sapiens; assay: Binding affinity to AMPA receptor (unknown origin) at 10 uM by radioligand binding assay
[37] = target: Glutamate [NMDA] receptor (Homo sapiens) (UniProt Q05586+Q12879+Q13224+O15399+O60391+Q14957+Q8TCU5); assay: Binding affinity to NMDA receptor (unknown origin) at 10 uM by radioligand binding assay
Homo sapiens [38] = species on record: Homo sapiens; assay: Binding affinity to I2 imidazoline binding site (unknown origin) at 10 uM by radioligand binding assay
[39] = target: Leukotriene B4 receptor (Homo sapiens) (UniProt Q9NPC1+Q15722); assay: Binding affinity to human leukotriene B4 receptor at 10 uM by radioligand binding assay; assay type: protein assay
[40] = target: Melatonin receptor type 1A (Homo sapiens) (UniProt P48039); assay: Binding affinity to human melatonin receptor type 1 at 10 uM by radioligand binding assay
Homo sapiens [41] = species on record: Homo sapiens; assay: Binding affinity to human muscarinic receptor at 10 uM by radioligand binding assay
[42] = target: Nociceptin receptor (Homo sapiens) (UniProt P41146); assay: Binding affinity to human NOP receptor at 10 uM by radioligand binding assay
[43] = target: Prostaglandin E2 receptor EP3 subtype (Homo sapiens) (UniProt P43115); assay: Binding affinity to human EP3 receptor at 10 uM by radioligand binding assay
[44] = target: Prostaglandin E2 receptor EP4 subtype (Homo sapiens) (UniProt P35408); assay: Binding affinity to human EP4 receptor at 10 uM by radioligand binding assay
[45] = target: Prostacyclin receptor (Homo sapiens) (UniProt P43119); assay: Binding affinity to human IP receptor at 10 uM by radioligand binding assay

Chain of Nitric oxide synthase, inducible (Homo sapiens) (P35228 whole entry): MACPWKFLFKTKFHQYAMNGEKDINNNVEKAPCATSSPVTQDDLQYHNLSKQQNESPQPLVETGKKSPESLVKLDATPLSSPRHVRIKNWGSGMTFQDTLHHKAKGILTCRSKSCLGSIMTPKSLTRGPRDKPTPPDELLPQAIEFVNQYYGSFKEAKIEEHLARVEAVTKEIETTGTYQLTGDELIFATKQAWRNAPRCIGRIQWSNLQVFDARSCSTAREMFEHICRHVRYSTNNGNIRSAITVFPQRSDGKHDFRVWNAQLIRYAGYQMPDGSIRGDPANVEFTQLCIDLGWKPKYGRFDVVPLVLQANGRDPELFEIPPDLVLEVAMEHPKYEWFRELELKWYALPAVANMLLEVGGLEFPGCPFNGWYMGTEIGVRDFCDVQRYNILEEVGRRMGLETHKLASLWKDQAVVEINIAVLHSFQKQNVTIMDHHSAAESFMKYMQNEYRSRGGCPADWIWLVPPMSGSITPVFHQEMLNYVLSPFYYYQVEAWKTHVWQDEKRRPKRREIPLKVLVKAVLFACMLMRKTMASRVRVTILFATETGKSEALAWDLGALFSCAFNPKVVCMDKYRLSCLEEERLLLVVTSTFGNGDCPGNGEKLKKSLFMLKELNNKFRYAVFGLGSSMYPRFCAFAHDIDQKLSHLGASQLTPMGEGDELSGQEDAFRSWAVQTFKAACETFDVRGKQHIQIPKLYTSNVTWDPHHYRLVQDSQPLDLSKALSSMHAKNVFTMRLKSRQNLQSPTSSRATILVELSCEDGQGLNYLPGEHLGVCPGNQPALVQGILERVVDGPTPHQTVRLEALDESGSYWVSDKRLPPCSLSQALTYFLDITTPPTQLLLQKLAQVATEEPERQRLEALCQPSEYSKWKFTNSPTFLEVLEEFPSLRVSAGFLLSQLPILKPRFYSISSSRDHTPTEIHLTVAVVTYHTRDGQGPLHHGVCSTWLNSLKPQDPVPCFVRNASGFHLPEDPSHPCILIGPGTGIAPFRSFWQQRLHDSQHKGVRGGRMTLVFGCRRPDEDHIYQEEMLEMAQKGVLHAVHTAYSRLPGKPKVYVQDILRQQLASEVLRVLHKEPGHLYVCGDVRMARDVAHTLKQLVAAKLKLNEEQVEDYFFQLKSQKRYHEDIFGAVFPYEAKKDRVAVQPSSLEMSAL
Chain of NAD-dependent protein deacetylase sirtuin-1 (Homo sapiens) (Q96EB6 whole entry): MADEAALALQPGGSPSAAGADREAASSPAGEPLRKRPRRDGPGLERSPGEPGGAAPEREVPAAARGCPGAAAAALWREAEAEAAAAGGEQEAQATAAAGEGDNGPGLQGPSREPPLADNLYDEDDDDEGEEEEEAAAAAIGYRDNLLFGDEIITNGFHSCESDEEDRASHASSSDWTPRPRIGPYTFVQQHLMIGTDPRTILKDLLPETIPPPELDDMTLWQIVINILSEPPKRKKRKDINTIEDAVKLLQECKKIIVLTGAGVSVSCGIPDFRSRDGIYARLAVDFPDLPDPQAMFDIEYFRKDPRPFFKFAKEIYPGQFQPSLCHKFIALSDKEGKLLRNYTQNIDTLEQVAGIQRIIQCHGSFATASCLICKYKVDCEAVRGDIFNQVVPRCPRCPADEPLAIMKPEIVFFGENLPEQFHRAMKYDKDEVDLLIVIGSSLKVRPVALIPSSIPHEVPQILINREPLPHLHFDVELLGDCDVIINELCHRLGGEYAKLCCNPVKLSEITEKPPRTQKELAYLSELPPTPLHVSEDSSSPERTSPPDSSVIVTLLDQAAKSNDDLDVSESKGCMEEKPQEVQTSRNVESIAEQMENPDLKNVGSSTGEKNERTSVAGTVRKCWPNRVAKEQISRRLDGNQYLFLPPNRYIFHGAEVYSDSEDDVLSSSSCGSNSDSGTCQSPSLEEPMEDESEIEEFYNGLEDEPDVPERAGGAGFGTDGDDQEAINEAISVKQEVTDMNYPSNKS
Chain of Prostaglandin E2 receptor EP3 subtype (Homo sapiens) (P43115 whole entry): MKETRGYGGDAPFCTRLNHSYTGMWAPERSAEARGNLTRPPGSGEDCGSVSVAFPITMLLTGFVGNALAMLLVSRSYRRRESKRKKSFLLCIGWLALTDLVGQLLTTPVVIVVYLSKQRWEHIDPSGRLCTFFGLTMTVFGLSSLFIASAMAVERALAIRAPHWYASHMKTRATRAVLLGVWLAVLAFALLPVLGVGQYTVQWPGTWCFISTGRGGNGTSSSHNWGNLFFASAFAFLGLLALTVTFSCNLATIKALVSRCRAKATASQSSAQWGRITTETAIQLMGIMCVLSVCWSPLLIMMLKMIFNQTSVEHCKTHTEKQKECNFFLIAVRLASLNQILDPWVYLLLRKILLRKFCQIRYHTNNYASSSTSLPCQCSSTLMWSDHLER
Chain of Estrogen receptor (Homo sapiens) (P03372 whole entry): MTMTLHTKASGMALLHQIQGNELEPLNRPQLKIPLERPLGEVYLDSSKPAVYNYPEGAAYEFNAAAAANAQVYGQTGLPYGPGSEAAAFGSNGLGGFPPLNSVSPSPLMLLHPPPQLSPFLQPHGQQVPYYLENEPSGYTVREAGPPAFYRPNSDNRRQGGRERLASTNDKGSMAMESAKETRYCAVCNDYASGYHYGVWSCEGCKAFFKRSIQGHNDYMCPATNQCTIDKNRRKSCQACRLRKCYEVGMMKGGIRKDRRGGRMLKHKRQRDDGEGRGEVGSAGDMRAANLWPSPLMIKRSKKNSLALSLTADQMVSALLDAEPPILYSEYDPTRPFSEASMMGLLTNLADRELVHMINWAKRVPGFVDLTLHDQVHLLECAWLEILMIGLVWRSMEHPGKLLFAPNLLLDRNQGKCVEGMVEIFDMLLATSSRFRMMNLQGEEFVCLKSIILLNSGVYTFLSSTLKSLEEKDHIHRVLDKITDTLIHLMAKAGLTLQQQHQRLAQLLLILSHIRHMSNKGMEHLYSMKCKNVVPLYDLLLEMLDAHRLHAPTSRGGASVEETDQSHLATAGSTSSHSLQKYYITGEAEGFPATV
Chain of Corticotropin-releasing factor receptor 1 (Homo sapiens) (P34998 whole entry): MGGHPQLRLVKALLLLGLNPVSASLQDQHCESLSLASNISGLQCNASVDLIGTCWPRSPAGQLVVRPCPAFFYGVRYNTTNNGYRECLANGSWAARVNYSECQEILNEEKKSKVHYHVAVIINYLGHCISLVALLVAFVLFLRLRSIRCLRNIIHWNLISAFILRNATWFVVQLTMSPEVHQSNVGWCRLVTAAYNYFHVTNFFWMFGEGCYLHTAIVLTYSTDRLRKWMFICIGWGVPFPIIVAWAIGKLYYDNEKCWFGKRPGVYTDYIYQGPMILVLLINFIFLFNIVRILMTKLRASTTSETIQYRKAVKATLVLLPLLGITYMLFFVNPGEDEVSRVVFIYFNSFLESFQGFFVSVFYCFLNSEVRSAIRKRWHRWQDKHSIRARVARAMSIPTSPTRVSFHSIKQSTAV
Chain of Polyunsaturated fatty acid lipoxygenase ALOX15B (Homo sapiens) (O15296 whole entry): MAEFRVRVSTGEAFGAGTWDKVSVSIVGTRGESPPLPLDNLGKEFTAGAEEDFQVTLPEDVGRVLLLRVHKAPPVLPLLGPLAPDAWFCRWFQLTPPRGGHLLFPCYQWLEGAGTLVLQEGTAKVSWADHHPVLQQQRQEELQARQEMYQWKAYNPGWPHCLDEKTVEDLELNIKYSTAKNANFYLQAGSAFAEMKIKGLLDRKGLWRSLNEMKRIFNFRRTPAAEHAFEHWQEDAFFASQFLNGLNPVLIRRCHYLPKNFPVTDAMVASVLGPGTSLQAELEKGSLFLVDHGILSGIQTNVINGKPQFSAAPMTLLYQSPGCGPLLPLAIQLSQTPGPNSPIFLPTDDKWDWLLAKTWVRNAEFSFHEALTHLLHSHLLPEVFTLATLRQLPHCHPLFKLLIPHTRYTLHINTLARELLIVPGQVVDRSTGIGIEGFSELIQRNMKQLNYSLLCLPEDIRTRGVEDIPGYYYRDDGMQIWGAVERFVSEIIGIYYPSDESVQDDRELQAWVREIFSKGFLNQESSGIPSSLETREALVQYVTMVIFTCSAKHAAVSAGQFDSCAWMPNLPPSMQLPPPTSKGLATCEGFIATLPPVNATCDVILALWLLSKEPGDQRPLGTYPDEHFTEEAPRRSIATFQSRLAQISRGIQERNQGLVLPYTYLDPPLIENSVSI
Chain of Kinesin-like protein KIF11 (Homo sapiens) (P52732 whole entry): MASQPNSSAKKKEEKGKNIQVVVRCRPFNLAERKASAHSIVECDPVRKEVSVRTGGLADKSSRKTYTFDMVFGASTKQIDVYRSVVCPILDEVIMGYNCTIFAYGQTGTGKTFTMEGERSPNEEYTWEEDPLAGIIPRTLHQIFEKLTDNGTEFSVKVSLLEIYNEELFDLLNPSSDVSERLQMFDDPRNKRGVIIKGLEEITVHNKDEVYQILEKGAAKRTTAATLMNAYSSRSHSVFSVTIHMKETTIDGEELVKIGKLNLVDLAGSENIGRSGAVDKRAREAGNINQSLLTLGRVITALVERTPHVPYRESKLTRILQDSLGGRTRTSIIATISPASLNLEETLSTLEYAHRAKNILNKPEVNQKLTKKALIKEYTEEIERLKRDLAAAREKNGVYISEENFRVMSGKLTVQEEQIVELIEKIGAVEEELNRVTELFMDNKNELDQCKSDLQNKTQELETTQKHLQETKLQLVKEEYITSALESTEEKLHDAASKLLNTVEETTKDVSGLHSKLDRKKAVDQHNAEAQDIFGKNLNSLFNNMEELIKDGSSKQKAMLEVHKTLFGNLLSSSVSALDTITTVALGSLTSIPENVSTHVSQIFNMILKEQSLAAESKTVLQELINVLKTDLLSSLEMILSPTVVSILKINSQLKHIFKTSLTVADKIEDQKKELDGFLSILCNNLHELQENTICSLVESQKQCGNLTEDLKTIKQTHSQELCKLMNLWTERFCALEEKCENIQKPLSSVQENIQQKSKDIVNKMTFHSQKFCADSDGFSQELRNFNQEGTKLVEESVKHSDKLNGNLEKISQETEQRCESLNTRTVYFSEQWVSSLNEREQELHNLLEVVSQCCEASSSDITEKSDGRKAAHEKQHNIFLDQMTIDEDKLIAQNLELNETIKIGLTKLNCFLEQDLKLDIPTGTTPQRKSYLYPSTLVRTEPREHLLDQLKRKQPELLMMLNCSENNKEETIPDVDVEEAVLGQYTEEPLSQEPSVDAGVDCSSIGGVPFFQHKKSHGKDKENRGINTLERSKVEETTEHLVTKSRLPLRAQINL

## CCCCCCNC(=O)Oc1cccc(-c2ccc([C@H](C)C(=O)O)cc2F)c1
Homo sapiens [1]
  Activity: 7.8%
Homo sapiens [2]
  Activity: -6.9%
[3]
  Activity: 2.3%
[4]
  Activity: -10.5%
[5]
  Activity: -9.5%
[6]
  Activity: 3.7%
Homo sapiens [7]
  Activity: -19.5%
Homo sapiens [8]
  Activity: -7.7%
Homo sapiens [9]
  Activity: 10.1%
[10]
  Activity: 7%
Homo sapiens [11]
  Activity: -3.3%
[12]
  Activity: -1.4%
[13]
  Activity: -3.2%
[14]
  Activity: 3.8%
[15]
  Activity: -6.4%
[16]
  Activity: -5.8%
[17]
  Activity: -6.3%
[18]
  Activity: -4.8%
[19]
  Activity: -11.2%
[20]
  Activity: -15.4%
[21]
  Activity: 3.5%
[22]
  Activity: -8.7%
[23]
  Activity: -52%
[24]
  Activity: -1.5%
Homo sapiens [25]
  Activity: 6.7%
[26]
  Activity: 18.8%
[27]
  Activity: 5.2%
Homo sapiens [28]
  Activity: -51.5%
[29]
  Activity: -4.3%
[30]
  Activity: -11.7%
[31]
  Activity: -3%
[32]
  Activity: 26.5%
[33]
  Activity: 11.9%
[34]
  Activity: -5%
[35]
  Activity: -4.4%
Homo sapiens [36]
  Activity: -4.6%
[37]
  Activity: 3.3%
Homo sapiens [38]
  Activity: -1.8%
[39]
  Activity: 1.2%
[40]
  Activity: -9.9%
Homo sapiens [41]
  Activity: 5%
[42]
  Activity: -1.7%
[43]
  Activity: 10.9%
[44]
  Activity: 18.7%
[45]
  Activity: 13.7%
